Measured values: US20230225315A1, “METHODS OF DELIVERING PLANT VIRUS-BASED NANOPESTICIDES” (priority 2019, published 2023)

Assays:
[1] = Soil column mobility (soil transport behaviour); assay type: physicochemical
Method: […] […] (pH 7.0) to the centre of the soil surface at the top of the column We added 10 mM KP buffer (pH 7.0) at a constant flow rate of 1.5 ml min^−1 and collected the eluent in 500-μL fractions. Up to 150 fractions were collected in each trial (two trials for each formulation and depth) and stored at 4° C.
The elution fractions containing TMGMV, PhMV or CPMV were analysed by SDS-PAGE to determine the mass of nanoparticles recovered in each elution fraction. […] TMGMV and PhMV were analysed on 4-12% NuPage polyacrylamide SDS gels cast according to the Surecast Handcast protocol (Invitrogen). […]
All nanoparticles were imaged in triplicate and the images were analysed using ImageJ The area under the curve (AUC) of the standards was used to create a linear standard curve relating the AUC of the elution samples to the total mass of nanoparticles present in the corresponding elution fraction. […]
To establish the soil transport behaviour of each formulation, we conducted mobility studies using a cylindrical column of diameter 28 mm packed with topsoil at a constant bulk density of 0.32 g cm^−3. […] Fractions containing virus-based formulations were analysed by SDS-PAGE to determine the mass of recovered nanoparticles. […]

nematode = conditions: concentration to be achieved in the rhizosphere; cited from earlier work
[2] = cited from earlier work

Row | Substance | soil depth penetrated by free Cy5 ([1]; 500 μg free Cy5, soil column 10 mm diameter) [cm] | mass of injected Cy5 recovered ([1]; free Cy5, column with a soil depth of 2 cm) | IC50 value (nematode) | solubility in water [2]
1 | Cyanine 5 [Cy5] | ≤ 4 | About 40% | – | –
2 | abamectin | – | – | 1.309×10^−4 mg cm^−3 | insoluble
